Data on seven compounds can be found in US20240124442A1, “TRICYCLIC-AMIDO-BICYCLIC PRMT5 INHIBITORS” (AMGEN INC., priority 2021, published 2024).

For one assay, the system named is HCT116 MTAP null cells. The experiment in a line: HCT116 MTAP null cell line proliferation / cell viability (CellTiter-Glo, 6 days). Particulars: 144 h; HCT116 MTAP null cells, 6 days treatment, CellTiter-Glo cell viability; read-out: HCT-116 MTAP null IC50. It counts as cell-based. On the procedure:
(§1) HCT116 Proliferation Activity
(§2) To assess selective anti-proliferative activity of compounds of the invention in cells that have loss expression of MTAP, an HCT-116 isogenic cell line pair was utilized where one cell line was engineered to genetically knockout both MTAP alleles. Cell viability was then assessed in both the parent HCT-116 cell line and the MTAP null cell line after 6 days of treatment with compounds of the present invention. Selective anti-proliferative activity in the MTAP null cell line indicates MTA-cooperative inhibition of PRMT5 and ability to inhibit growth of cancer cells that have loss of MTAP.
(§3) HCT116 MTAP null and WT cells were seeded in 96-well tissue culture plates in RPMI 1640 media+10% fetal bovine serum. Plates were incubated overnight at 37° C. and 5% CO2. Cells were then treated with an 8- or 9-point serial dilution of compound, using a top concentration of 1, or 10 μM, 1:3 serial dilution steps and, a DMSO-only control. Cells were incubated in the presence of drug for 6 days. Effects on cell viability were measured with the CellTiter-Glo® Luminescent Cell Viability Assay (Promega) per manufacturer's recommendation. Assay plates were read on an EnVision™ Multilabel Reader using the Ultra-Sensitive luminescence module. IC50 values were calculated with GraphPad Prism v 5.01 using symmetrical sigmoidal dose-response least squares fit with Hill slope fixed to −1 and top constrain to 100% or GeneData Screener using a 4-parameter logistic model to fit dose response curves.
(§4) Alternatively, compounds could be assayed with a 384 well plate format:
(§5) Compounds were pre-spotted into 384 well plates with a 22-point serial dilution of compound, using a top concentration of 10 or 50 μM, 1:2 serial dilution steps and, a DMSO-only control. HCT116 MTAP null and WT cells were then seeded as above and after 6 days effects on cell viability were measured with the CellTiter-Glo® Luminescent Cell Viability Assay (Promega). Assay plates were read as above and IC50 values were calculated with GeneData Screener using a 4-parameter logistic model to fit dose response curves. The reported IC50 represents the value where the curve transits 50% of control.
(In general: ATP-based viability assays read luminescence as a measure of living cells.)

In the next assay the test system is HCT116 WT cells. Kind of assay: HCT116 WT (parent) cell line proliferation / cell viability (CellTiter-Glo, 6 days). The class given is cell-based. The settings on record: Homo sapiens, HCT-116, 144 h, 6 days treatment. On the procedure:
as §1, §2, §3, §4, §5

`CN(C(=O)c1cc2c3c(c(N)nc2cc1F)COC3)C1COc2cc(C(F)(F)F)ncc21` (racemic) [Example 460, 4-amino-7-fluoro-N-methyl-N-((3R)-6-(trifluoromethyl)-2,3-dihydrofuro[3,2-c]pyridin-3-yl)-1,3-dihydrofuro[3,4-c]quinoline-8-carboxamide and 4-amino-7-fluoro-N-methyl-N-((3S)-6-(trifluoromethyl)-2,3-dihydrofuro[3,2-c]pyridin-3-yl)-1,3-dihydrofuro[3,4-c]quinoline-8-carboxamide]: the IC50 – broadly, the concentration that inhibits the measured activity by half – with HCT116 MTAP null cells stood at 162 nM; in the assay with HCT116 WT cells, 10800 nM.
`CC(C)S(=O)(=O)c1ccc2c(c1)OCC2N(C)C(=O)c1cc2c3c(c(N)nc2cc1F)COC3` (racemic) [Example 464, 4-amino-7-fluoro-N-methyl-N-((3R)-6-(2-propanylsulfonyl)-2,3-dihydro-1-benzofuran-3-yl)-1,3-dihydrofuro[3,4-c]quinoline-8-carboxamide and 4-amino-7-fluoro-N-methyl-N-((3S)-6-(2-propanylsulfonyl)-2,3-dihydro-1-benzofuran-3-yl)-1,3-dihydrofuro[3,4-c]quinoline-8-carboxamide]: the concentration for half-maximal inhibition (IC50) with HCT116 MTAP null cells amounted to 22 nM; in the assay on HCT116 WT cells, 1880 nM.
Consider `CN(C(=O)c1cc2c3c(c(N)nc2cc1F)COC3)C1COc2cc(Br)cnc21` (racemic) [Example 465, 4-amino-N-((3R)-6-bromo-2,3-dihydrofuro[3,2-b]pyridin-3-yl)-7-fluoro-N-methyl-1,3-dihydrofuro[3,4-c]quinoline-8-carboxamide and 4-amino-N-((3S)-6-bromo-2,3-dihydrofuro[3,2-b]pyridin-3-yl)-7-fluoro-N-methyl-1,3-dihydrofuro[3,4-c]quinoline-8-carboxamide], for which the results for the IC50 with HCT116 MTAP null cells and in the assay with HCT116 WT cells were 1420 nM and 32200 nM, respectively.
Consider `CN(C(=O)c1cc2c3c(c(N)nc2cc1Cl)COC3)C1COc2cc(C(F)(F)F)cc(F)c21` (racemic) [Example 472, 4-amino-7-chloro-N-((3R)-4-fluoro-6-(trifluoromethyl)-2,3-dihydro-1-benzofuran-3-yl)-N-methyl-1,3-dihydrofuro[3,4-c]quinoline-8-carboxamide and 4-amino-7-chloro-N-((3S)-4-fluoro-6-(trifluoromethyl)-2,3-dihydro-1-benzofuran-3-yl)-N-methyl-1,3-dihydrofuro[3,4-c]quinoline-8-carboxamide], for which the IC50 with HCT116 MTAP null cells came to 22 nM; in the assay on HCT116 WT cells it was 1140 nM.
Taken in the same sequence, the figures for `CN(C(=O)c1cc2c(cc1F)nc(N)c1cnn(C)c12)C1CSc2cc(Br)ccc21` (racemic) [Example 479, 4-amino-N-((3R)-6-bromo-2,3-dihydro-1-benzothiophen-3-yl)-7-fluoro-N,1-dimethyl-1H-pyrazolo[4,3-c]quinoline-8-carboxamide and 4-amino-N-((3S)-6-bromo-2,3-dihydro-1-benzothiophen-3-yl)-7-fluoro-N,1-dimethyl-1H-pyrazolo[4,3-c]quinoline-8-carboxamide] were 23 nM and 710 nM.
As to `CN(C(=O)c1cc2c(cc1F)nc(N)c1c2cnn1C)C1COc2cc(C#N)ccc21` (racemic) [Example 482, 4-amino-N-((3R)-6-cyano-2,3-dihydro-1-benzofuran-3-yl)-7-fluoro-N,3-dimethyl-3H-pyrazolo[3,4-c]quinoline-8-carboxamide and 4-amino-N-((3S)-6-cyano-2,3-dihydro-1-benzofuran-3-yl)-7-fluoro-N,3-dimethyl-3H-pyrazolo[3,4-c]quinoline-8-carboxamide], the half-maximal inhibitory concentration (IC50) was determined as 166 nM in the assay on HCT116 MTAP null cells and 17500 nM in the assay with HCT116 WT cells.
Taken in the same sequence, the figures for `CN(C(=O)c1cc2c(cc1F)nc(N)c1c2cnn1C)C1CSc2cc(Br)ccc21` (racemic) [Example 484, 4-amino-N-((3R)-6-bromo-2,3-dihydro-1-benzothiophen-3-yl)-7-fluoro-N,3-dimethyl-3H-pyrazolo[3,4-c]quinoline-8-carboxamide and 4-amino-N-((3S)-6-bromo-2,3-dihydro-1-benzothiophen-3-yl)-7-fluoro-N,3-dimethyl-3H-pyrazolo[3,4-c]quinoline-8-carboxamide] were 221 nM and 5590 nM.
